According to ChEMBL document CHEMBL1124941, “Assessment of the in vivo and in vitro opioid activity of bridged hexahydroaporphine and isoquinoline molecules” (J Med Chem, 1990):

Key:
Mus musculus = species: Mus musculus; assay: Effective dose required for antinociceptive activity in mouse; type: functional
Opioid receptor [1] = target: T1, Opioid receptor (Rattus norvegicus, UniProt P33533+P34975+P33535); type: tissue-based, Brain
Description: Concentration that produces 50% inhibition of stereospecific [3H]naloxone binding to opioid receptors in rat brain in presence of sodium.

Opioid receptor [2] = target: T1, Opioid receptor; type: tissue-based, Brain; remark: listed apart in the source
Description: Concentration that produces 50% inhibition of stereospecific [3H]naloxone binding to opioid receptors in rat brain in absence of sodium.

Compound | ED50 (Mus musculus) [µg] | IC50 (Opioid receptor [1]) [µM] | IC50 (Opioid receptor [2]) [µM]
COc1ccc2c(c1)C1CCC3CCC14C3CCN(C)C4C2.Cl (stereo not given) | 5.42 |  | 
CN1CCC2C3CCC4c5cc(O)ccc5CC1C42CC3.Cl (stereo not given) | 4.07 | 5.59 | 0.472
CN1CC[C@]23c4c5ccc(O)c4O[C@H]2[C@@H](O)C=C[C@H]3[C@H]1C5.CN1CC[C@]23c4c5ccc(O)c4O[C@H]2[C@@H](O)C=C[C@H]3[C@H]1C5.O=S(=O)(O)O | 0.0794 |  | 
